In ChEMBL document CHEMBL2163210, “Aryl Piperazinyl Ureas as Inhibitors of Fatty Acid Amide Hydrolase (FAAH) in Rat, Dog, and Primate” (ACS Med Chem Lett, 2012):

Key:
[1] = biological target: T1, Fatty-acid amide hydrolase 1 (Rattus norvegicus, UniProt P97612)
T1 sequence (P97612 whole entry): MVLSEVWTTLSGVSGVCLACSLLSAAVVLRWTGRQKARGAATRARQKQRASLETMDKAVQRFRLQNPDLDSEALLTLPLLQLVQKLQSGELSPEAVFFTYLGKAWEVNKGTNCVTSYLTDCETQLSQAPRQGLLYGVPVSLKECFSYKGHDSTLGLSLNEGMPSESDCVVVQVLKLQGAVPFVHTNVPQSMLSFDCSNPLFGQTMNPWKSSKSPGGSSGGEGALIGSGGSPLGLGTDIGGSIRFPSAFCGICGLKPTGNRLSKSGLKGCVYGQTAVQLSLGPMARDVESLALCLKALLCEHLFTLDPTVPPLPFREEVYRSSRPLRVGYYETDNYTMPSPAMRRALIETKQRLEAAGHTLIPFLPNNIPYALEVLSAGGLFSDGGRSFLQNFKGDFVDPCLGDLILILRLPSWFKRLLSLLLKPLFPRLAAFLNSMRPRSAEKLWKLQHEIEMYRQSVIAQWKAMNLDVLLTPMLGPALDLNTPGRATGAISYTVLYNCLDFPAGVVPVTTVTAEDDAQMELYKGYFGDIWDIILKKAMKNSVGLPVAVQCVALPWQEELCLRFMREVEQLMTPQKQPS
Description: Inhibition of rat FAAH after 1 hr

[2] = biological target: T2, Fatty-acid amide hydrolase 1 (Homo sapiens, UniProt O00519); assay: Inhibition of human FAAH after 1 hr
T2 sequence (O00519 whole entry): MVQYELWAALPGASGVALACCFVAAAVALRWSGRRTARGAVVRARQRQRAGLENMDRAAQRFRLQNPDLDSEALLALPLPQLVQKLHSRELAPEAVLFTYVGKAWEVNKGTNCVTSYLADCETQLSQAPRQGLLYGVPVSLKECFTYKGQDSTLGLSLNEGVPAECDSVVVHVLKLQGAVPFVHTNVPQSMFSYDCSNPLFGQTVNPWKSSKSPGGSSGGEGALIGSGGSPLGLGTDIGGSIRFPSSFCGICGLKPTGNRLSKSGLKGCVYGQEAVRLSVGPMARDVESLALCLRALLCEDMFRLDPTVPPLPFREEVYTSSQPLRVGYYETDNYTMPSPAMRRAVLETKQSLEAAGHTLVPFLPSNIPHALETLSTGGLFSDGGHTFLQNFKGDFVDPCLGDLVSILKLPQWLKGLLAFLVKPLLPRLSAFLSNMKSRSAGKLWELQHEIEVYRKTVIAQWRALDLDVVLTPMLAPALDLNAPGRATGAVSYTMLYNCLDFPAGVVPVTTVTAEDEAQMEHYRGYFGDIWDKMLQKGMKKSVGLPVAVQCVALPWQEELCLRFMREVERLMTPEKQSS

Rattus norvegicus [3] = assay: Inhibition of FAAH in rat at 3 mg/kg, po at 12 hrs; format: functional
[4] = Apparent volume of distribution in cynomolgus monkey at 1 mg/kg, iv and 5 mg/kg, po; format: ADME, organism-based, Macaca fascicularis; conditions: in vivo, read-out: Vz
[5] = Volume of distribution at steady state in Beagle dog at 1 mg/kg, iv and 5 mg/kg, po; format: ADME, organism-based, Canis lupus familiaris; conditions: in vivo, read-out: Vdss
Rattus norvegicus [6] = assay: Volume of distribution at steady state in rat at 0.3 to 10 mg/kg, po; format: ADME, organism-based; design: dose 0.3-10 mg/kg, route oral; conditions: in vivo
Cynomolgus monkey [7] = assay: Inhibition of cynomolgus monkey FAAH assessed as increase in plasma N-palmitoylethanolamide level at 1 mg/kg, iv at 4 hrs relative to control; format: functional; conditions: Macaca fascicularis
[8] = Clearance in Beagle dog at 1 mg/kg, iv and 5 mg/kg, po; format: ADME, organism-based, Canis lupus familiaris; conditions: in vivo
Rattus norvegicus [9] = assay: Inhibition of rat FAAH assessed as increase in plasma N-palmitoylethanolamide level at 3 mg/kg, po at 4 hrs relative to control; format: functional
[10] = Oral bioavailability in rat at 0.3 to 10 mg/kg; format: ADME, organism-based; conditions: in vivo
[11] = Clearance in cynomolgus monkey at 1 mg/kg, iv and 5 mg/kg, po; format: ADME, organism-based, Macaca fascicularis; conditions: in vivo
[12] = Clearance in rat at 0.3 to 10 mg/kg, po; format: ADME, organism-based; design: dose 0.3-10 mg/kg, route oral; conditions: in vivo
[13] = Oral bioavailability in Beagle dog at 5 mg/kg; format: ADME, organism-based, Canis lupus familiaris; conditions: in vivo
[14] = Plasma concentration in rat at 3 mg/kg, po at 6 hrs; format: ADME, organism-based; design: dose 3 mg/kg, route oral
Plasma = assay: Drug uptake in po dosed rat plasma; format: ADME, organism-based; conditions: in vivo
Canis familiaris [15] = assay: Inhibition of Beagle dog FAAH assessed as increase in plasma N-palmitoylethanolamide level at 1 mg/kg, iv and 5 mg/kg, po at 6 to 8 hrs relative to control; format: functional, Canis lupus familiaris
Rattus norvegicus [16] = assay: Apparent volume of distribution in rat at 0.3 to 10 mg/kg, po; format: ADME, organism-based; design: dose 0.3-10 mg/kg, route oral; conditions: in vivo
Brain = assay: Drug uptake in po dosed rat brain; format: ADME, organism-based; conditions: in vivo
[17] = Ratio of drug level in brain to plasma in rat at 0.3 to 10 mg/kg, po; format: ADME, organism-based; design: dose 0.3-10 mg/kg, route oral; conditions: read-out: BPR
[18] = Volume of distribution at steady state in cynomolgus monkey at 1 mg/kg, iv and 5 mg/kg, po; format: ADME, organism-based, Macaca fascicularis; conditions: in vivo, read-out: Vdss
Rattus norvegicus [19] = assay: Inhibition of rat FAAH assessed as increase in brain N-palmitoylethanolamide level at 10 mg/kg, po at 4 hrs relative to control; format: functional
Cynomolgus monkey [20] = assay: Inhibition of cynomolgus monkey FAAH assessed as increase in plasma anandamide level at 1 mg/kg, iv at 4 hrs relative to control; format: functional; conditions: Macaca fascicularis
[21] = Plasma concentration in rat at 3 mg/kg, po at 4 hrs; format: ADME, organism-based; design: dose 3 mg/kg, route oral
[22] = Apparent volume of distribution in Beagle dog at 1 mg/kg, iv and 5 mg/kg, po; format: ADME, organism-based, Canis lupus familiaris; conditions: in vivo, read-out: Vz
Canis familiaris [23] = assay: Inhibition of Beagle dog FAAH assessed as increase in plasma anandamide level at 1 mg/kg, iv and 5 mg/kg, po at 2 to 3 hrs relative to control; format: functional, Canis lupus familiaris
Cynomolgus monkey [24] = assay: Inhibition of cynomolgus monkey FAAH assessed as increase in plasma N-oleoylethanolamide level at 1 mg/kg, iv at 4 hrs relative to control; format: functional; conditions: Macaca fascicularis
[25] = Oral bioavailability in cynomolgus monkey at 5 mg/kg; format: ADME, organism-based, Macaca fascicularis; conditions: in vivo
[26] = Plasma concentration in rat at 3 mg/kg, po at 24 hrs; format: ADME, organism-based; design: dose 3 mg/kg, route oral
Rattus norvegicus [27] = assay: Inhibition of rat FAAH assessed as increase in brain N-oleoylethanolamide level at 10 mg/kg, po at 4 hrs relative to control; format: functional
[28] = biological target: T3, Fatty-acid amide hydrolase 2 (Homo sapiens, UniProt Q6GMR7); assay: Inhibition of FAAH2
T3 sequence (Q6GMR7 whole entry): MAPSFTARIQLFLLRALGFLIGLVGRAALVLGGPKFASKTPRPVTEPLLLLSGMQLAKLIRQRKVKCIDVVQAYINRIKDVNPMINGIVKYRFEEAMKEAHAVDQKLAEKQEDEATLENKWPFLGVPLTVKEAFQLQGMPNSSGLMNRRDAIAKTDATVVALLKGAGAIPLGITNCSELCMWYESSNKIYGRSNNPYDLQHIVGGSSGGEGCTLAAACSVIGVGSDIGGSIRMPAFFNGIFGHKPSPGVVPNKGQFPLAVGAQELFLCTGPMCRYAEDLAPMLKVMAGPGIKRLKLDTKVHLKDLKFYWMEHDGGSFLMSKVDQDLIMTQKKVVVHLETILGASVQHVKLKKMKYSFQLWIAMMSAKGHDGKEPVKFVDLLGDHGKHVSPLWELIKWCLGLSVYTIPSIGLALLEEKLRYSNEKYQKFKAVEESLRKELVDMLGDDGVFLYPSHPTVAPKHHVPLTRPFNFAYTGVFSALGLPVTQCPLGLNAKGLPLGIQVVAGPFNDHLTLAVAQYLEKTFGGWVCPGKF

[29] = Plasma concentration in rat at 3 mg/kg, po at 12 hrs; format: ADME, organism-based; design: dose 3 mg/kg, route oral
Rattus norvegicus [30] = assay: Inhibition of rat FAAH assessed as increase in plasma N-oleoylethanolamide level at 3 mg/kg, po at 4 hrs relative to control; format: functional
Canis familiaris [31] = assay: Inhibition of Beagle dog FAAH assessed as increase in plasma N-oleoylethanolamide level at 1 mg/kg, iv and 5 mg/kg, po at 2 to 3 hrs relative to control; format: functional, Canis lupus familiaris
Rattus norvegicus [32] = assay: Inhibition of rat FAAH assessed as increase in plasma anandamide level at 3 mg/kg, po at 4 hrs relative to control; format: functional
Rattus norvegicus [33] = assay: Inhibition of rat FAAH assessed as increase in brain anandamide level at 10 mg/kg, po at 4 hrs relative to control; format: functional
[34] = biological target: T2, Fatty-acid amide hydrolase 1; assay: Inhibition of human FAAH
[35] = biological target: T1, Fatty-acid amide hydrolase 1; assay: Inhibition of rat FAAH

SMILES: O=C(Nc1ccccc1)N1CCN(Cc2ccc(Cl)cc2)CC1
- IC50 [1]: 2.67 µM
- IC50 [2]: 0.128 µM

SMILES: O=C(Nc1cccnc1)N1CCN(Cc2cccc(Oc3ccc(Cl)cc3)c2)CC1
- inhibition in vivo at 3 mg/kg (Rattus norvegicus [3]): 90%
- Vd [4]: 2.18 L/kg
- Vd [5]: 1.24 L/kg
- Vdss (Rattus norvegicus [6]): 3.2 L/kg
- inhibition in vivo at 1 mg/kg (Cynomolgus monkey [7]): 150%
- clearance [8]: 2.3 L/h/kg
- fold change (FC) (Rattus norvegicus [9]): 2.25
- bioavailability [10]: 53%
- clearance [11]: 1.52 L/h/kg
- CL/F [12]: 0.69 L/h/kg
- bioavailability [13]: 39%
- concentration at 6 h [14]: 0.6 µM
- Cp (Plasma): Dose-dependent effect
- fold change (FC) (Canis familiaris [15]): >30
- Vz (Rattus norvegicus [16]): 8.3 L/kg
- Drug uptake (Brain): Dose-dependent effect
- Kp [17]: 2.62
- Vd [18]: 1.89 L/kg
- fold change (FC) (Rattus norvegicus [19]): 3.7
- inhibition in vivo at 1 mg/kg (Cynomolgus monkey [20]): 300%
- concentration at 4 h [21]: 0.8 µM
- Vd [22]: 1.4 L/kg
- fold change (FC) (Canis familiaris [23]): >30
- inhibition in vivo at 1 mg/kg (Cynomolgus monkey [24]): 150%
- bioavailability [25]: 62%
- concentration at 24 h [26]: 0.015 µM
- fold change (FC) (Rattus norvegicus [27]): 3.25
- IC50 [28]: > 10 µM
- concentration at 12 h [29]: 0.2 µM
- fold change (FC) (Rattus norvegicus [30]): 1.9
- fold change (FC) (Canis familiaris [31]): >30
- fold change (FC) (Rattus norvegicus [32]): 3
- fold change (FC) (Rattus norvegicus [33]): 1.75

SMILES: O=C(Nc1ccccc1)N1CCN(Cc2ccc(C(F)(F)F)cc2)CC1
- IC50 [1]: 0.26 µM
- IC50 [2]: 0.05 µM

SMILES: O=C(Nc1ccccc1)N1CCN(Cc2ccc(Oc3ccc(Cl)cc3)cc2)CC1
- IC50 [1]: 4 µM
- IC50 [2]: 0.062 µM

SMILES: COc1cc(Br)cc(CN2CCN(C(=O)Nc3ccccc3)CC2)c1O
- IC50 [34]: 0.12 µM
- IC50 [35]: 0.243 µM

SMILES: COc1ccc(Oc2cccc(CN3CCN(C(=O)Nc4ccccc4)CC3)c2)cc1
- IC50 [1]: 0.133 µM
- IC50 [2]: 0.012 µM

SMILES: O=C(Nc1ccccc1)N1CCN(Cc2ccccc2)CC1
- IC50 [1]: > 10 µM
- IC50 [2]: > 10 µM

SMILES: O=C(Nc1ccccc1)N1CCN(Cc2cccc(F)c2)CC1
- IC50 [1]: > 10 µM
- IC50 [2]: 2.47 µM

SMILES: O=C(Nc1ccccc1)N1CCN(Cc2cccc(Cl)c2)CC1
- IC50 [1]: 5.6 µM
- IC50 [2]: 0.84 µM

SMILES: O=C(Nc1ccncc1)N1CCN(Cc2cccc(Oc3ccc(Cl)cc3)c2)CC1
- IC50 [1]: 0.52 µM
- IC50 [2]: 0.015 µM

SMILES: O=C(Nc1ccccc1)N1CCN(Cc2cccc(Oc3ccccc3)c2)CC1
- IC50 [1]: 6.67 µM
- IC50 [2]: 0.074 µM

SMILES: CC(C)(C)c1ccc(Oc2cccc(CN3CCN(C(=O)Nc4ccccc4)CC3)c2)cc1
- IC50 [1]: 0.075 µM
- IC50 [2]: 0.046 µM

SMILES: O=C(Nc1cccnc1)N1CCC(Cc2cccc(Oc3ccc(C(F)(F)F)cn3)c2)CC1
- IC50 [28]: > 10 µM

SMILES: O=C(Nc1ccccc1)N1CCN(Cc2ccc(Oc3ccccc3)cc2)CC1
- IC50 [1]: > 10 µM
- IC50 [2]: 2.83 µM
